Results published in patent US20250195513A1, “DEGRADATION OF IRAK4 BY CONJUGATION OF IRAK4 INHIBITORS WITH E3 LIGASE LIGAND AND METHODS OF USE” (BeiGene, Ltd., priority 2022, published 2025).
Where two headings read alike, the source gives them in different places.

Molecular target: T1, IRAK4 (Homo sapiens, UniProt Q9NWZ3)
T1 construct: endogenous in cells; host or cells: Karpas299
T1 sequence (Q9NWZ3 1-460): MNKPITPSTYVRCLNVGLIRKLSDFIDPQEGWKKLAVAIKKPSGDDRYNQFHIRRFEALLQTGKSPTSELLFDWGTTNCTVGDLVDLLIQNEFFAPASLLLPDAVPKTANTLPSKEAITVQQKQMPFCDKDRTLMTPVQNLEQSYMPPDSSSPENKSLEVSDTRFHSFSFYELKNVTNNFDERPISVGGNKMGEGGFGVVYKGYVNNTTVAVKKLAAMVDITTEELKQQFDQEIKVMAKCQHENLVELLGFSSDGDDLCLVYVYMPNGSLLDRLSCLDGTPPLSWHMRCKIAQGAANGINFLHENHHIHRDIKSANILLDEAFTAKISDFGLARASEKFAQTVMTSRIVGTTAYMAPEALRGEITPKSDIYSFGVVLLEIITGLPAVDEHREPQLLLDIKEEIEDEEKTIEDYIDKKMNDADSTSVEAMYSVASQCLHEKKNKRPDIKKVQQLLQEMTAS
Assay: IRAK4 Degradation Assay (Karpas299, HTRF/TR-FRET)
Format: cell-based
Conditions: Karpas-299 cells; for Dmax: maximum percentage of degradation
Summary of the method: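 Karpas299 cells at 0.2 million per well were exposed to serially diluted compounds for 24 h or 5 h, then lysed. IRAK4 remaining in lysates was quantified by HTRF (665/620 nm) after overnight antibody incubation at room temperature. Percent degradation was fitted to a four-parameter curve to give IC50 (DC50).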

[1] = 24 h treatment, read-out: IRAK4 in Karpas-299 (24 h) Dmax (%)
[2] = 24 h treatment, read-out: IRAK4 in Karpas-299 (24 h) DC50
[3] = 5 h treatment, read-out: IRAK4 in Karpas-299 (5 h) Dmax (%)
[4] = 5 h treatment, read-out: IRAK4 in Karpas-299 (5 h) DC50

Row | Dmax [1] | DC50 [2] | Dmax [3] | DC50 [4] | SMILES
1 | 99% | 0.4 nM | – | – | CC(C)(O)c1cc2nn([C@H]3CC[C@H](N4CCN(C5CCN(c6cc(F)c([C@H]7CCC(=O)NC7=O)c(F)c6)CC5)CC4)CC3)cc2cc1NC(=O)c1cccc(C(F)(F)F)n1 [Example 99, N-(2-((1r,4r)-4-(4-(1-(4-((R)-2,6-dioxopiperidin-3-yl)-3,5-difluorophenyl)piperidin-4-yl)piperazin-1-yl)cyclohexyl)-6-(2-hydroxypropan-2-yl)-2H-indazol-5-yl)-6-(trifluoromethyl)picolinamide]
2 | 97% | 7.8 nM | 94% | 44 nM | COc1cc2nn([C@H]3CC[C@H](N4CCN(C(=O)[C@@H]5CCN(c6cc(F)c(N7CCC(=O)NC7=O)c(F)c6)C5)CC4)CC3)cc2cc1NC(=O)c1cccc(C(F)(F)F)n1 [Example 177, N-(2-((1R,4r)-4-(4-((R)-1-(4-(2,4-dioxotetrahydropyrimidin-1(2H)-yl)-3,5-difluorophenyl)pyrrolidine-3-carbonyl)piperazin-1-yl)cyclohexyl)-6-methoxy-2H-indazol-5-yl)-6-(trifluoromethyl)picolinamide]
3 | 97% | 4.8 nM | – | – | O=C1CC[C@H](c2c(F)cc(N3CCC(CN4CCN([C@H]5CC[C@H](n6cc(NC(=O)c7coc(-c8ccnc(NCC(F)(F)F)c8)n7)c(C(F)F)n6)CC5)CC4)CC3)cc2F)C(=O)N1 [Example 20, N-(3-(difluoromethyl)-1-((1r,4r)-4-(4-((1-(4-((R)-2,6-dioxopiperidin-3-yl)-3,5-difluorophenyl)piperidin-4-yl)methyl)piperazin-1-yl)cyclohexyl)-1H-pyrazol-4-yl)-2-(2-((2,2,2-trifluoroethyl)amino)pyridin-4-yl)oxazole-4-carboxamide]
4 | 96% | 8.6 nM | – | – | CC(C)(O)c1cc2nn([C@H]3CC[C@H](N4CCN(C[C@H]5CCN(c6cc(F)c(N7CCC(=O)NC7=O)c(F)c6)C5)CC4)CC3)cc2cc1NC(=O)c1ccc2cc(C#N)cnn12 [Example 112, 3-cyano-N-(2-((1R,4r)-4-(4-(((R)-1-(4-(2,4-dioxotetrahydropyrimidin-1(2H)-yl)-3,5-difluorophenyl)pyrrolidin-3-yl)methyl)piperazin-1-yl)cyclohexyl)-6-(2-hydroxypropan-2-yl)-2H-indazol-5-yl)pyrrolo[1,2-b]pyridazine-7-carboxamide]
5 | 100% | 0.4 nM | – | – | O=C1CC[C@H](c2c(F)cc(N3CC(CN4CCN([C@H]5CC[C@H](n6cc(NC(=O)c7csc(-c8cn[nH]c8)n7)c(C(F)F)n6)CC5)CC4)C3)cc2F)C(=O)N1 [Example 435, N-(3-(difluoromethyl)-1-((1r,4r)-4-(4-((1-(4-((R)-2,6-dioxopiperidin-3-yl)-3,5-difluorophenyl)azetidin-3-yl)methyl)piperazin-1-yl)cyclohexyl)-1H-pyrazol-4-yl)-2-(1H-pyrazol-4-yl)thiazole-4-carboxamide]
6 | 78% | 4.2 nM | – | – | CC(C)(O)c1cc2nn(C3CCN(C4CCN(C(=O)C5CN(c6cc(F)c([C@H]7CCC(=O)NC7=O)c(F)c6)C5)CC4)CC3)cc2cc1NC(=O)c1cccn(C2CC2)c1=O [Example 117, (R)-1-cyclopropyl-N-(2-(1′-(1-(4-(2,6-dioxopiperidin-3-yl)-3,5-difluorophenyl)azetidine-3-carbonyl)-[1,4′-bipiperidin]-4-yl)-6-(2-hydroxypropan-2-yl)-2H-indazol-5-yl)-2-oxo-1,2-dihydropyridine-3-carboxamide]
7 | 90% | 4.4 nM | – | – | CC(C)(O)c1cc2nn([C@H]3CC[C@H](N4CCN(C(=O)[C@@H]5CCN(c6cc(F)c([C@H]7CCC(=O)NC7=O)c(F)c6)C5)CC4)CC3)cc2cc1NC(=O)c1cccn(C2CC2)c1=O [Example 103, 1-cyclopropyl-N-(2-((1R,4r)-4-(4-((R)-1-(4-((R)-2,6-dioxopiperidin-3-yl)-3,5-difluorophenyl)pyrrolidine-3-carbonyl)piperazin-1-yl)cyclohexyl)-6-(2-hydroxypropan-2-yl)-2H-indazol-5-yl)-2-oxo-1,2-dihydropyridine-3-carboxamide]
8 | 94% | 2 nM | 61% | 12 nM | CC(C)(O)c1cc2nn([C@H]3CC[C@H](N4CCN(C(=O)C5CN(c6cc(F)c([C@H]7CCC(=O)NC7=O)c(F)c6)C5)CC4)CC3)cc2cc1NC(=O)c1cccn(C2CC2)c1=O [Example 102, 1-cyclopropyl-N-(2-((1r,4r)-4-(4-(1-(4-((R)-2,6-dioxopiperidin-3-yl)-3,5-difluorophenyl)azetidine-3-carbonyl)piperazin-1-yl)cyclohexyl)-6-(2-hydroxypropan-2-yl)-2H-indazol-5-yl)-2-oxo-1,2-dihydropyridine-3-carboxamide]
9 | 94% | 1.9 nM | – | – | CC(C)(O)c1cc2nn(C3CCN([C@H]4CCN(C(=O)C5CN(c6cc(F)c([C@H]7CCC(=O)NC7=O)c(F)c6)C5)CC4(F)F)CC3)cc2cc1NC(=O)c1ccc2cc(C#N)cnn12 [Example 287, 3-cyano-N-(2-((S)-1′-(1-(4-((R)-2,6-dioxopiperidin-3-yl)-3,5-difluorophenyl)azetidine-3-carbonyl)-3′,3′-difluoro-[1,4′-bipiperidin]-4-yl)-6-(2-hydroxypropan-2-yl)-2H-indazol-5-yl)pyrrolo[1,2-b]pyridazine-7-carboxamide]
10 | 92% | 3.7 nM | – | – | CC(C)(O)c1cc2nn([C@H]3C[C@H](N4CCN(C5CN(c6cc(F)c([C@H]7CCC(=O)NC7=O)c(F)c6)C5)CC4)C3)cc2cc1NC(=O)c1ccc2cc(C#N)cnn12 [Example 331, 3-cyano-N-(2-((1R,3r)-3-(4-(1-(4-((R)-2,6-dioxopiperidin-3-yl)-3,5-difluorophenyl)azetidin-3-yl)piperazin-1-yl)cyclobutyl)-6-(2-hydroxypropan-2-yl)-2H-indazol-5-yl)pyrrolo[1,2-b]pyridazine-7-carboxamide]
11 | 97% | 2.2 nM | – | – | O=C1CC[C@H](c2c(F)cc(N3CC(C(=O)N4CCN([C@H]5CC[C@H](n6cc(NC(=O)c7coc(-c8ccnc(NCC9CC9)c8)n7)c(C(F)F)n6)CC5)C(=O)C4)C3)cc2F)C(=O)N1 [Example 100, 2-(2-((cyclopropylmethyl)amino)pyridin-4-yl)-N-(3-(difluoromethyl)-1-((1r,4r)-4-(4-(1-(4-((R)-2,6-dioxopiperidin-3-yl)-3,5-difluorophenyl)azetidine-3-carbonyl)-2-oxopiperazin-1-yl)cyclohexyl)-1H-pyrazol-4-yl)oxazole-4-carboxamide]
12 | 91% | 4.8 nM | – | – | N#Cc1cnn2c(C(=O)Nc3cc4cn([C@H]5CC[C@H](N6CCN(C7CN(c8cc(F)c([C@H]9CCC(=O)NC9=O)c(F)c8)C7)CC6)CC5)nc4c4c3OC(F)(F)O4)ccc2c1 [Example 385, 3-cyano-N-(2-((1R,4r)-4-(4-(1-(4-((R)-2,6-dioxopiperidin-3-yl)-3,5-difluorophenyl)azetidin-3-yl)piperazin-1-yl)cyclohexyl)-7,7-difluoro-2H-[1,3]dioxolo[4,5-g]indazol-5-yl)pyrrolo[1,2-b]pyridazine-7-carboxamide]
13 | 102% | 1.3 nM | 94% | 12 nM | CC(C)(O)c1cc2nc(C3CCN(C4CCN(C(=O)[C@@H]5CCN(c6cc(F)c([C@H]7CCC(=O)NC7=O)c(F)c6)C5)CC4)CC3)cn2cc1NC(=O)c1cccc(C(F)(F)F)n1 [Example 127, N-(2-(1′-((R)-1-(4-((R)-2,6-dioxopiperidin-3-yl)-3,5-difluorophenyl)pyrrolidine-3-carbonyl)-[1,4′-bipiperidin]-4-yl)-7-(2-hydroxypropan-2-yl)imidazo[1,2-a]pyridin-6-yl)-6-(trifluoromethyl)picolinamide]
14 | 96% | 2.5 nM | – | – | NC(=O)c1nn(-c2ccc(N3CCN(C(=O)C4CN(c5ccc(N6CCC(=O)NC6=O)cc5)C4)CC3)nc2)cc1NC(=O)c1coc(-c2ccnc(NCC(F)(F)F)c2)n1 [Example 28, N-(3-carbamoyl-1-(6-(4-(1-(4-(2,4-dioxotetrahydropyrimidin-1(2H)-yl)phenyl)azetidine-3-carbonyl)piperazin-1-yl)pyridin-3-yl)-1H-pyrazol-4-yl)-2-(2-((2,2,2-trifluoroethyl)amino)pyridin-4-yl)oxazole-4-carboxamide]
15 | 93% | 9 nM | – | – | CC(C)(O)c1cc2nn(C3CCN([C@@H]4CCN(C(=O)C5CN(c6cc(F)c(N7CCC(=O)NC7=O)c(F)c6)C5)CC4(F)F)CC3)cc2cc1NC(=O)c1ccc2cc(C#N)cnn12 [Example 198, (R)-3-cyano-N-(2-(1′-(1-(4-(2,4-dioxotetrahydropyrimidin-1(2H)-yl)-3,5-difluorophenyl)azetidine-3-carbonyl)-3′,3′-difluoro-[1,4′-bipiperidin]-4-yl)-6-(2-hydroxypropan-2-yl)-2H-indazol-5-yl)pyrrolo[1,2-b]pyridazine-7-carboxamide]
